Laboratory results published in patent publication US20240174992A1, “SPLIT MODIFIED DEHALOGENASE VARIANTS” (Promega Corporation, priority 2022, published 2024).

Columns and labels:
HeLa cells [1] = assay: Live cell labeling kinetics of split HaloTag fragments fused to BRD4 and Histone H3, time-lapse imaging; assay type: cell-based; conditions: 100 nM JF646, BRD4-HaloTag[3-19] and H3.3-HaloTag[22-297](M2F)-EGFP
Protocol: FIG. 136. Timepoint imaging of complemented BRD4:Histone H3 complexes in live cells after addition of JF646 HaloTag ligand. […] Cells were immediately imaged after the ligand, 100 nM JF646, addition every 15 minutes for 1.5 hour. Imaging data were collected in the Far-red channel (Ex. 637 nm, top panel) and the green channel (Ex. 488 nm, bottom panel).
FIG. 137. Quantitation of live cell labeling kinetics of split HaloTag fragments fused to BRD4 and Histone H3 using time-lapse imaging. Cells were immediately imaged after the ligand addition every 10 minutes for 70 minutes. A Z-stack image was obtained at all time points to ensure all cells were captured in focus. The most focused Z levels were merged into one, and the intensity of all cells (6 total objects) was measured and averaged at all time points. The average of all cells' intensities present in the captured field of view were tracked in the far-red channel and the green channel over this period. […]
To measure the labeling rate, cells were immediately imaged after ligand addition every 10 minutes for 70 minutes (FIG. 137). […] The most focused Z levels were merged into one, and the intensity of all cells (6 total objects) was measured and averaged at all time points. […]

[2] = target: T1, Calmodulin:M13 interaction (Homo sapiens, UniProt P0DP23); assay: Calmodulin:M13 interaction with split HaloTag, live cell imaging in HeLa cells; assay type: cell-based
T1 construct: HaloTag[3-19]; expressed in transfected cells; host or cells: HeLa cells
Protocol: FIG. 142. Live cell imaging of split HaloTag function in detecting the interaction between Calmodulin protein with the M13 peptide induced upon the addition of Ca ions in live mammalian cells. […] Prior to imaging by confocal microscopy, cells were labeled with 100 nM JF646 HaloTag ligand for 30 minutes at 37° C. The imaging data were collected in the far-red channel (Ex. 637 nm) and the green channel (Ex. 488 nm).
FIG. 143. Background measurement of HaloTag[22-297](M2F) fused to M13 peptide in live mammalian cells at lower laser intensity To measure the background originating from labeling the HaloTag [22-297](M2F) fragment, cells were transfected with just the M13-HaloTag[22-297](M2F)-EGFP plasmid and imaged using the same microscope settings. The Imaging data were collected in the far-red channel (Ex. 637 nm) and the green channel (Ex. 488 nm).
FIG. 144. Quantitation of live cell imaging of split HaloTag function in detecting the Calmodulin and M13 peptide interaction in live mammalian cells. Comparison of the fluorescent intensity of all imaged cells across several fields of view in the presence or absence of Calcium chloride (6 mM) conditions compared against the background fluorescent intensity of the labeled non-complemented HaloTag[22-297](M2F) fragment alone. Each dot represents the intensity of an imaged cell. CellProfiler software is used for this analysis.

[3] = target: T1, Calmodulin:M13 interaction; assay: Calmodulin:M13 interaction with split HaloTag, plate assay in live HeLa cells; assay type: cell-based
Protocol: FIG. 140. Use of split HaloTag in detecting the interaction between Calmodulin and M13 peptide induced by the Calcium ions in live mammalian cells. […] The fluorescence activity was measured at indicated time points. For each construct, four technical replicates were tested. The bar for each construct is the mean of the four replicates, and the error bar represents the standard deviations.
FIG. 141. The fold response of split HaloTag in detecting the interaction between Calmodulin and M13 peptide induced by the Calcium ions in live mammalian cells. The fold response of each assay condition was calculated as the ratio of fluorescence signal for +Calcium chloride divided by −Calcium chloride treated cells (B). For each construct, four technical replicates have been tested. The bar for each construct is the mean of the four replicates, and the error bar represents the standard deviations.

HeLa cells [4] = assay: Split HaloTag FRB/FKBP plate-based fluorescent assay in live HeLa cells; assay type: cell-based; conditions: for performance of small HaloTag fragment: live HeLa cells, 500 nM Rapamycin, 50 nM JF646
Protocol: FIG. 27A-B. Activity of split HaloTag combinations in live mammalian cells. HeLa cells transiently transfected with plasmids expressing the large HaloTag fragments fused to FRB and small HaloTag fragments fused to FKBP were incubated for 2 hours with 500 nM Rapamycin, followed by labeling with 50 nM JF646 HaloTag ligand prior to detection of fluorescence at indicated timepoints. FIG. 27A Fluorescence intensity of JF646 HaloTag ligand in live cell assays over time comparing cells treated or untreated with Rapamycin. FIG. 27B Fold response of each assay condition was calculated as the ratio of fluorescence signal for +Rapamycin/−Rapamycin treated cells.
(§1) FIG. 90. The activity of different small HaloTag fragments in live mammalian cells. HeLa cells transiently transfected with plasmids expressing the large HaloTag fragment fused to FRB and small HaloTag fragments fused to FKBP were incubated for 2 hours with 500 nM Rapamycin, followed by labeling with 50 nM JF646 HaloTag ligand prior to detection of fluorescence activity at indicated time points. Fluorescence intensity of JF646 HaloTag ligand in live cell assays over time comparing cells treated or untreated with Rapamycin.
(§2) FIG. 91. Fold response of different small HaloTag fragments in live mammalian cells. HeLa cells transiently transfected with plasmids expressing the large HaloTag fragment fused to FRB and small HaloTag fragments fused to FKBP were incubated for 2 hours with 500 nM Rapamycin, followed by labeling with 50 nM JF646 HaloTag ligand prior to detection of fluorescence activity at indicated time points. The fold response of each assay condition was calculated as the ratio of fluorescence signal for +Rapamycin/−Rapamycin treated cells.
as §1, with “93. Activity comparison” for “90. The activity”, “HaloTag[22-297] variants in a protein complementation assay” for “different small HaloTag fragments”
as §2, with “94. […]” for “91. Fold response of different small HaloTag fragments in live mammalian cells.”, “+Rapamycin/− Rapamycin” for “+Rapamycin/−Rapamycin”, “cells. […]” for “cells.”

[5] = Complementation of N-terminal split HaloTag constructs in E. coli lysates, Janelia Fluor ligand fluorescence; assay type: biochemical; conditions: FKBP fusion against HT(23-297)-FRB, 500 nM Rapamycin, JF646
Protocol: FIG. 21A-B. Comparison of complementation activity of N-terminal split HaloTag constructs. Each HaloTag fragment was expressed separately in E. coli and then combined after lysis. The smaller N-terminal HaloTag fragments as FKBP fusions were tested against the larger fragments of FIG. 21A HT(23-297)-FRB or FIG. 21B HT(22-297)-FRB. To each reaction, 500 nM Rapamycin was added and incubated at room temperature for 2.5 hours prior to addition of 50 nM JF646 ligand and measurement of fluorescence at the indicated timepoint.
FIG. 22. Comparison of truncations of N-terminal split HaloTag constructs. Each HaloTag fragment was expressed separately in E. coli and then combined after lysis. […] To each reaction, 500 nM Rapamycin was added and incubated at room temperature for 2 hours prior to addition of 50 nM JF646 ligand and measurement of fluorescence at the indicated timepoint.
FIG. 25A-B. Mutations in N-terminal split HaloTag fragments improve fluorescence intensity and fold response. […] To each reaction, 500 nM Rapamycin was added and incubated at room temperature for 2 hours prior to addition of 50 nM JF646 ligand and measurement of fluorescence at the indicated timepoint. FIG. 25A Fluorescence intensity is shown for +Rapamycin condition to show the overall system brightness relative to FIG. 25B Fold response following Rapamycin addition. […]

C[Si]1(C)c2cc(N3CCC3)ccc2C2(OC(=O)c3ccc(C(=O)NCCOCCOCCCCCCCl)cc32)c2ccc(N3CCC3)cc21 [JF646]
time for far-red channel signal to reach its maximum (HeLa cells [1]): about 40 minutes

[Ca+2].[Cl-].[Cl-] [calcium, Calcium chloride]
change in fluorescence from split HaloTag complementation ([2]; 6 mM Calcium chloride, microscopy): significant increase in fluorescence | increase in median fluorescence ([2]; across all cell images, Calcium chloride 6 mM): 7 × | change in fluorescence of split HaloTag fused to Calmodulin and M13 peptide [3]: modest, calcium-dependent increase in fluorescence

HT(4-19): small HaloTag fragment, residues 4-19, FKBP fusion
performance of small HaloTag fragment (HeLa cells [4]): good fluorescence intensities and high fold responses

HT(8-19): truncated small N-terminal HaloTag fragment, residues 8-19, FKBP fusion
complementation activity of truncated small fragment [5]: Complementation activity was demonstrated

HaloTag[1-30]: small HaloTag fragment, residues 1-30, FKBP fusion
performance of small HaloTag fragment (HeLa cells [4]): best SmHT in this assay | background complementation (HeLa cells [4]; no Rapamycin): higher background (no Rapamycin) complementation

HaloTag[3-19]: small HaloTag fragment, residues 3-19 of the HALOTAG sequence; used as fusion or synthetic peptide (EIGTGFPFDPHYVEVLG)
performance of small HaloTag fragment (HeLa cells [4]): good fluorescence intensities and high fold responses
